Results as given in US9980943B2, “Methods of treating muscular dystrophy” (BOARD OF REGENTS OF THE NEVADA SYSTEM OF HIGHER EDUCATION, …, priority 2013, dated 2018).

Tests used:
Format in all cases: cell-based, mouse
[1] = tested on: α7 integrin (LacZ reporter in α7βgal+/− myoblasts); assay: Myoblast α7+/LacZ integrin FDG assay (Burkin assay in myoblasts, 96-well); settings: 96-well; for Burkin Assay in Myoblasts, signal relative to DMSO: α7+/LacZ myoblasts; for Burkin Assay in Myoblasts, value relative to DMSO: SU9516 analogs, N=3-6
[2] = tested on: α7 integrin (LacZ reporter in α7+/LacZ myotubes); assay: Myotube α7 integrin FDG assay (Burkin assay in myotubes, 96-well); settings: for Burkin Assay in Myotubes, value relative to DMSO: SU9516 analogs, 96-well, N=3-6
[3] = tested on: β-galactosidase in CMV-LacZ C2C12 myoblasts; assay: CMV-LacZ secondary screen in C2C12 myoblasts (β-Gal stabilizing assay); settings: for CMV-LACZ in Myoblasts (β-galactosidase activity relative to DMSO): CMV-LacZ C2C12 myoblasts; for CMV-LACZ in Myoblasts, value relative to DMSO: SU9516 analogs, C2C12 CMV-LacZ, N=2
Text: In order to determine compounds that acted to stabilize β-gal in myogenic cells, a CMV-LacZ C2C12 cell line was used in a secondary screen. The EGFP gene from the pEGFP (Clontech) vector was replaced by LACZ PCR product with digests of the vector/PCR product performed using EcoRI (NEB) and NotI (NEB) and ligated using T4 DNA Ligase (NEB) following standard procedures to produce the CMV-LACZ vector. The LACZ gene was generated by PCR from the pBK-RSV (Stratagene) vector using primers LACZ EcoRI F- and LACZ NotI R-. The CMV-LACZ vector was then digested with AfIII (NEB) to linearize the construct, which was then transfected in C2C12 myoblasts using Lipofectamine 2000 (Invitrogen) following the manufacturer's instructions. […] Clonal lines were selected and screened for βgal levels using the myoblast FDG assay.
The assays were used the original 96-well format and new dose-response curves for myoblasts (N=3-6 replicates for each data point), myotubes (N=3-6 replicates for data point), and CMV-LacZ secondary assay (N=2 replicates for each data point) using concentrations of 0.5 μM, 1 μM, 5 μM, 10 μM, 20 μM, and 40 μM (Tables 9-16).

[4] = tested on: β-galactosidase in CMV-LacZ C2C12 myotubes; assay: CMV-LacZ secondary screen in C2C12 myotubes (β-Gal stabilizing assay); settings: for CMV-LACZ in Myotubes, signal relative to DMSO: C2C12 CMV-LacZ myotubes, fold relative to DMSO; for CMV-LACZ in Myotubes, value relative to DMSO: SU9516 analogs, C2C12 CMV-LacZ, N=2
How it was run: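 β-Gal level was the read-out, measured in a clonal C2C12 line expressing LacZ from a CMV promoter. Dose-response curves used six concentrations, 0.5 μM up to 40 μM, with duplicate points.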

Q: How did the “Burkin Assay in Myoblasts, signal relative to DMSO” value ([1]; 0.5 uM) turn out when `CN1C(=O)N(CC(=O)N2CCN(S(=O)(=O)c3ccc(Cl)s3)CC2)C(=O)C12CCCCC2` [MLS002162890-01] was run?
A: 1.107

Q: And the “Burkin Assay in Myoblasts, signal relative to DMSO” value ([1]; 1 uM)?
A: 1.034

Q: And the “Burkin Assay in Myoblasts, signal relative to DMSO” value ([1]; 5 uM)?
A: 1.1338

Q: And the “Burkin Assay in Myoblasts, signal relative to DMSO” value ([1]; 10 uM)?
A: 1.261

Q: And the “Burkin Assay in Myoblasts, signal relative to DMSO” value ([1]; 20 uM)?
A: 0.694

Q: What about the “Burkin Assay in Myoblasts, signal relative to DMSO” value ([1]; 40 uM) of the same compound?
A: 0.4924

Q: What about the “Burkin Assay in Myotubes, α7 integrin LacZ reporter signal relative to DMSO” value ([2]; 0.5 uM) of the same compound?
A: 1.051

Q: What about the “Burkin Assay in Myotubes, α7 integrin LacZ reporter signal relative to DMSO” value ([2]; 1 uM) of the same compound?
A: 1.185

Q: And the “Burkin Assay in Myotubes, α7 integrin LacZ reporter signal relative to DMSO” value ([2]; 5 uM)?
A: 0.9351

Q: And the “Burkin Assay in Myotubes, α7 integrin LacZ reporter signal relative to DMSO” value ([2]; 10 uM)?
A: 1.1501

Q: And the “Burkin Assay in Myotubes, α7 integrin LacZ reporter signal relative to DMSO” value ([2]; 20 uM)?
A: 0.7452

Q: What about the “Burkin Assay in Myotubes, α7 integrin LacZ reporter signal relative to DMSO” value ([2]; 40 uM) of the same compound?
A: 0.803

Q: And the “CMV-LACZ in Myoblasts (β-galactosidase activity relative to DMSO)” value ([3]; 0.5 uM)?
A: 0.8392

Q: And the “CMV-LACZ in Myoblasts (β-galactosidase activity relative to DMSO)” value ([3]; 1 uM)?
A: 0.8713

Q: What about the “CMV-LACZ in Myoblasts (β-galactosidase activity relative to DMSO)” value ([3]; 5 uM) of the same compound?
A: 0.9701

Q: And the “CMV-LACZ in Myoblasts (β-galactosidase activity relative to DMSO)” value ([3]; 10 uM)?
A: 0.9939

Q: What about the “CMV-LACZ in Myoblasts (β-galactosidase activity relative to DMSO)” value ([3]; 20 uM) of the same compound?
A: 0.7603

Q: What about the “CMV-LACZ in Myoblasts (β-galactosidase activity relative to DMSO)” value ([3]; 40 uM) of the same compound?
A: 0.9507

Q: What about the “CMV-LACZ in Myotubes, signal relative to DMSO” value ([4]; 0.5 uM) of the same compound?
A: 1.0682

Q: What about the “CMV-LACZ in Myotubes, signal relative to DMSO” value ([4]; 1 uM) of the same compound?
A: 1.0191

Q: And the “CMV-LACZ in Myotubes, signal relative to DMSO” value ([4]; 5 uM)?
A: 1.1237

Q: What about the “CMV-LACZ in Myotubes, signal relative to DMSO” value ([4]; 10 uM) of the same compound?
A: 1.0530

Q: What about the “CMV-LACZ in Myotubes, signal relative to DMSO” value ([4]; 20 uM) of the same compound?
A: 1.0140

Q: And the “CMV-LACZ in Myotubes, signal relative to DMSO” value ([4]; 40 uM)?
A: 1.0170

Q: Which results are given for `Cc1ccc(/C=C2\C(=O)Nc3ccccc32)o1` [MLS000391588-01]?
A: Burkin Assay in Myoblasts, value relative to DMSO ([1]; 0.5 uM): 1.07; Burkin Assay in Myoblasts, value relative to DMSO ([1]; 1 uM): 1.015; Burkin Assay in Myoblasts, value relative to DMSO ([1]; 5 uM): 0.9119; Burkin Assay in Myoblasts, value relative to DMSO ([1]; 10 uM): 0.8176; Burkin Assay in Myoblasts, value relative to DMSO ([1]; 20 uM): 0.7804; Burkin Assay in Myoblasts, value relative to DMSO ([1]; 40 uM): 0.3005; Burkin Assay in Myotubes, value relative to DMSO ([2]; 0.5 uM): 1.073; Burkin Assay in Myotubes, value relative to DMSO ([2]; 1 uM): 0.9563; Burkin Assay in Myotubes, value relative to DMSO ([2]; 5 uM): 0.8994; Burkin Assay in Myotubes, value relative to DMSO ([2]; 10 uM): 0.9356; Burkin Assay in Myotubes, value relative to DMSO ([2]; 20 uM): 0.7631; Burkin Assay in Myotubes, value relative to DMSO ([2]; 40 uM): 0.664; CMV-LACZ in Myoblasts, value relative to DMSO ([3]; 0.5 uM): 1.0009; CMV-LACZ in Myoblasts, value relative to DMSO ([3]; 1 uM): 0.7411; CMV-LACZ in Myoblasts, value relative to DMSO ([3]; 5 uM): 0.9885; CMV-LACZ in Myoblasts, value relative to DMSO ([3]; 10 uM): 1.0968; CMV-LACZ in Myoblasts, value relative to DMSO ([3]; 20 uM): 1.4307; CMV-LACZ in Myoblasts, value relative to DMSO ([3]; 40 uM): 1.1119; CMV-LACZ in Myotubes, value relative to DMSO ([4]; 0.5 uM): 0.8400; CMV-LACZ in Myotubes, value relative to DMSO ([4]; 1 uM): 1.0010; CMV-LACZ in Myotubes, value relative to DMSO ([4]; 5 uM): 1.0019; CMV-LACZ in Myotubes, value relative to DMSO ([4]; 10 uM): 0.9740; CMV-LACZ in Myotubes, value relative to DMSO ([4]; 20 uM): 0.9212; CMV-LACZ in Myotubes, value relative to DMSO ([4]; 40 uM): 0.9094

Q: Which “Burkin Assay in Myoblasts, signal relative to DMSO” value ([1]; 0.5 uM) does the source give for `O=C(NCc1ccccc1)C(c1c(F)cccc1Cl)N(C(=O)c1csnn1)C1CC1` (stereo not drawn) [MLS001221908-01] here?
A: 1.051

Q: What about the “Burkin Assay in Myoblasts, signal relative to DMSO” value ([1]; 1 uM) of the same compound?
A: 0.9531

Q: What about the “Burkin Assay in Myoblasts, signal relative to DMSO” value ([1]; 5 uM) of the same compound?
A: 0.9306

Q: And the “Burkin Assay in Myoblasts, signal relative to DMSO” value ([1]; 10 uM)?
A: 0.8812

Q: What about the “Burkin Assay in Myoblasts, signal relative to DMSO” value ([1]; 20 uM) of the same compound?
A: 1.433

Q: And the “Burkin Assay in Myoblasts, signal relative to DMSO” value ([1]; 40 uM)?
A: 0.5684

Q: And the “Burkin Assay in Myotubes, α7 integrin LacZ reporter signal relative to DMSO” value ([2]; 0.5 uM)?
A: 1.197

Q: What about the “Burkin Assay in Myotubes, α7 integrin LacZ reporter signal relative to DMSO” value ([2]; 1 uM) of the same compound?
A: 0.9589

Q: What about the “Burkin Assay in Myotubes, α7 integrin LacZ reporter signal relative to DMSO” value ([2]; 5 uM) of the same compound?
A: 0.889

Q: What about the “Burkin Assay in Myotubes, α7 integrin LacZ reporter signal relative to DMSO” value ([2]; 10 uM) of the same compound?
A: 0.9693

Q: What about the “Burkin Assay in Myotubes, α7 integrin LacZ reporter signal relative to DMSO” value ([2]; 20 uM) of the same compound?
A: 0.818

Q: What about the “Burkin Assay in Myotubes, α7 integrin LacZ reporter signal relative to DMSO” value ([2]; 40 uM) of the same compound?
A: 0.7406

Q: What about the “CMV-LACZ in Myoblasts (β-galactosidase activity relative to DMSO)” value ([3]; 0.5 uM) of the same compound?
A: 0.9663

Q: What about the “CMV-LACZ in Myoblasts (β-galactosidase activity relative to DMSO)” value ([3]; 1 uM) of the same compound?
A: 0.7607

Q: What about the “CMV-LACZ in Myoblasts (β-galactosidase activity relative to DMSO)” value ([3]; 5 uM) of the same compound?
A: 0.9357

Q: What about the “CMV-LACZ in Myoblasts (β-galactosidase activity relative to DMSO)” value ([3]; 10 uM) of the same compound?
A: 0.7908

Q: And the “CMV-LACZ in Myoblasts (β-galactosidase activity relative to DMSO)” value ([3]; 20 uM)?
A: 0.9726

Q: And the “CMV-LACZ in Myoblasts (β-galactosidase activity relative to DMSO)” value ([3]; 40 uM)?
A: 0.6789

Q: What about the “CMV-LACZ in Myotubes, signal relative to DMSO” value ([4]; 0.5 uM) of the same compound?
A: 0.8562

Q: What about the “CMV-LACZ in Myotubes, signal relative to DMSO” value ([4]; 1 uM) of the same compound?
A: 0.9171

Q: And the “CMV-LACZ in Myotubes, signal relative to DMSO” value ([4]; 5 uM)?
A: 0.9745

Q: And the “CMV-LACZ in Myotubes, signal relative to DMSO” value ([4]; 10 uM)?
A: 1.1838

Q: And the “CMV-LACZ in Myotubes, signal relative to DMSO” value ([4]; 20 uM)?
A: 1.0770

Q: What about the “CMV-LACZ in Myotubes, signal relative to DMSO” value ([4]; 40 uM) of the same compound?
A: 0.8850
